Where “and” joins values, the source holds several entries; their conditions need not be identical. Equal values may be shown once. Where a name gives a salt, the structure may show the parent alone. Read-outs that look alike come from different tables or passages of the source.
What was measured:
FIH = conditions: read-out: IC50 metal ion, FIH [μM] (Ki values are shown), cited from earlier work
KDM4A = conditions: read-out: IC50 metal ion, KDM4A, cited from earlier work
KDM4E = conditions: read-out: IC50 metal ion, KDM4E, cited from earlier work
PHD2 = conditions: read-out: IC50 metal ion, PHD2, cited from earlier work
[1] = target: T1, His6-AspH315–758 (human aspartate/asparagine-β-hydroxylase, AspH) (Homo sapiens, UniProt Q12797); assay: SPE-MS AspH inhibition assay (LOPAC screen at fixed 20 μM and IC50 dose-response), hydroxylation of cyclic peptide hFX-CP101–119; format: biochemical
T1 construct: N-Terminally His6-tagged human AspH315–758 (His6-AspH315–758) was produced in E. coli BL21 (DE3) cells; made in house; host or cells: E. coli BL21 (DE3), pET-28a(+) vector
T1 sequence (Q12797 315-758): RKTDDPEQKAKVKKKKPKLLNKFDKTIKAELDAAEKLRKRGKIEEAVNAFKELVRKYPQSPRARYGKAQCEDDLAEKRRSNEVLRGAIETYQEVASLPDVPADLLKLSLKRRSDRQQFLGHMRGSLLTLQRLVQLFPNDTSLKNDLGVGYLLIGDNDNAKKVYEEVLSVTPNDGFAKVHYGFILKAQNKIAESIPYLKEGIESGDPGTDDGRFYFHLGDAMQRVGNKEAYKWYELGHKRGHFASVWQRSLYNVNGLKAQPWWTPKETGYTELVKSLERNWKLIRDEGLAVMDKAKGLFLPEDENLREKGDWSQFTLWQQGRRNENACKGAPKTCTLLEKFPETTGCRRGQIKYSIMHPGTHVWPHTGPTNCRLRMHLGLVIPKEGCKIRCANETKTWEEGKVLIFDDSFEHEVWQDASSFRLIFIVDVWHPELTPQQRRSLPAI

His6-AspH315-758 (AspH) = target: T2, His6-AspH315-758 (AspH) (Homo sapiens, UniProt Q12797); assay: Differential scanning fluorimetry (DSF) assay, shift of AspH melting temperature; format: binding; conditions: 20 μM inhibitor, 2 μM AspH, 50 μM NiCl2, with respect to DMSO controls, n = 2, mean ± SD; for ΔTm at 20 µM: read-out: Tm-shift (ΔTm) of AspH melting temperature [°C]
T2 construct: freshly thawed His6-AspH315-758 was added; made in house; host or cells: E. coli BL21 (DE3), pET-28a(+) vector
T2 sequence (Q12797 315-758): T1 sequence (Q12797 315-758)

TauD = conditions: read-out: IC50 metal ion, TauD; cited from earlier work
[2] = 5 μM Fe(II), Ki values are shown
[3] = 50 nM AspH, 2.0 μM Fe(II), Zn(OAc)2, NiSO4, CoCl2, MnCl2, CaCl2 as metal sources, n = 2, mean ± SD, read-out: IC50 metal ion, AspH
[4] = 50 nM His6-AspH315–758, 1.0 μM hFX-CP101–119, 3 μM 2OG, 2 μM Fe(II), 50 mM HEPES pH 7.5, 20 °C, mean ± SD, n = 2 (2,4-PDCA n = 10), read-out: IC50
[5] = LOPAC compound at 20uM, plate 3, conversion of substrate peptide
[6] = LOPAC compound at fixed 20 uM, plate 1, normalised to DMSO and 2,4-PDCA controls
[7] = LOPAC compound at fixed 20 uM, substrate conversion, plate 1
[8] = LOPAC compound at 20uM, plate 2, conversion of substrate peptide
[9] = LOPAC compound at 20uM, plate 2, normalised to DMSO and 2,4-PDCA controls

## [Cl][Mn][Cl] [Mn(II), MnCl2]
FIH; [2]
  Ki: 10 ± 1 µM
KDM4A; 2 μM KDM4 and 10 μM Fe(II)
  IC50: 101 µM
KDM4E; 2 μM KDM4 and 10 μM Fe(II)
  IC50: 224 µM
PHD2; 2 μM PHD2 and 20 μM Fe(II)
  IC50: 21 µM
[1]; [3]
  IC50: 5.06 ± 1.02 µM
[1]; ratio of IC50 values against AspH, Table 2
  Reduction of AspH inhibition compared to Zn(II): approximately 100 fold

## O=C(O)c1ccnc(C(=O)O)c1 [2,4-PDCA, pyridine-2,4-dicarboxylic acid]
His6-AspH315-758 (AspH)
  ΔTm at 20 µM: 3.5 ± 0.6 °C

## CCOc1nc2cccc(C(=O)OC(C)OC(=O)OC3CCCCC3)c2n1Cc1ccc(-c2ccccc2-c2nnn[nH]2)cc1 (stereo not shown) [Candesartan cilexetil, reference compound]
His6-AspH315-758 (AspH)
  Tm-shift (ΔTm) of AspH melting temperature [°C]: < 0.3 °C
  ΔTm at 20 µM: 0.2 ± 0.1 °C
[1]; AspH activity, fixed compound concentration 20 μM, initial LOPAC screen, 0.5%v/v DMSO, read-out: Inhibition at 20 µM [%]
  inhibition at 20 µM: 100%
[1]; LOPAC Plate 4, compound at 20 uM, substrate conversion
  % conversion: 2.30%

## CoCl2 [Co(II)]
FIH
  Ki: 1 ± 0.4 µM
KDM4A
  IC50: 5.7 µM
KDM4E
  IC50: 9.4 µM
PHD2
  IC50: 48.3 µM
[1]; read-out: IC50 metal ion, AspH
  IC50: 0.39 ± 0.13 µM
TauD
  IC50: 1 to 3.5 µM

## CC(=O)[O-].CC(=O)[O-].[Zn+2] [Zn(II), Zn(OAc)2]
FIH; [2]
  Ki: 0.5 ± 0.1 µM
KDM4A; 2 μM KDM4 and 10 μM Fe(II)
  IC50: 7.8 µM
KDM4E; 2 μM KDM4 and 10 μM Fe(II)
  IC50: 13 µM
PHD2; 2 μM PHD2 and 20 μM Fe(II)
  IC50: 9.3 µM
[1]; [3]
  IC50: ~0.05 µM and 0.05 µM

## Cc1ccc(-n2sc3ccccc3c2=O)cc1 [PBIT, 2-(4-methylphenyl)-1,2-benzisothiazol-3(2 H)-one, reference compound]
His6-AspH315-758 (AspH)
  Tm-shift (ΔTm) of AspH melting temperature [°C]: -15.2 ± 1.4 °C and ~ −15.2 °C
[1]; [4]
  IC50: 0.14 ± 0.02 µM

## O=C(O)CNC(=O)C(=O)O [NOG, N-oxalylglycine, reference compound]
His6-AspH315-758 (AspH)
  ΔTm at 20 µM: 2.8 ± 0.3 °C
[1]; [4]
  IC50: 1.09 ± 0.29 µM

## O=C(O)c1ccc(O)c2ncccc12 [IOX1]
His6-AspH315-758 (AspH)
  Tm-shift (ΔTm) of AspH melting temperature [°C]: 2.8 ± 0.2 °C and ~ 2.8 °C

## O=S(=O)([O-])[O-].[Ni+2] [Ni(II), NiSO4]
FIH
  Ki: 4 ± 1 µM
KDM4A
  IC50: 9.4 µM
KDM4E
  IC50: 15.6 µM
PHD2
  IC50: 185 µM
[1]; read-out: IC50 metal ion, AspH
  IC50: 0.17 ± 0.08 µM
TauD
  IC50: 0.6 to 1 µM

## C[C@@H]1CCN(C(=O)N2CCCC2)C[C@@H]1N(C)c1ncnc2[nH]ccc12 [PF-956980]
[1]; plate 5 (Pfitzer), test compounds at fixed 20 μM
  Plate 5 (% inhibition): 16.28%
[1]; plate 5 (Pfitzer), test compounds at fixed 20 μM, mean conversion DMSO 32.88
  Plate 5 (% conversion): 30.77%

## COC(=O)C1=CCCN(C)C1 [Arecoline hydrobromide]
[1]
  Plate 1 (% conversion): 37.04%
  Plate 1 (% inhibition): -3.47%

## CCN(CC)CCNC(=O)c1cc(Cl)c(N)cc1OC.Cl [Metoclopramide hydrochloride]
[1]; [5]
  Plate 3 (% conversion): 35.20%

## NC(=O)CI [Iodoacetamide, reference compound]
[1]
  Inhibition at 20 µM [%]: 102.0%

## Nc1nc2c(c(=O)[nH]1)C[C@@H](CCc1ccc(C(=O)N[C@@H](CCC(=O)O)C(=O)O)cc1)CN2.O [Lometrexol hydrate]
[1]
  Plate 3 (% conversion): 27.08%

## CC(=O)[C@H]1CC[C@H]2[C@@H]3CC[C@H]4C[C@](C)(O)CC[C@]4(C)[C@H]3CC[C@]12C [Ganaxolone]
[1]
  Plate 2 (% conversion): 36.34%
[1]; read-out: Plate 2 (% inhibition)
  inhibition at 20 µM: -1.16%

## CCC1(c2ccc(N)cc2)CCC(=O)NC1=O (racemic) [(±)-p-Aminoglutethimide]
[1]
  Plate 1 (% conversion): 34.85%
  Plate 1 (% inhibition): 3.03%

## COC1=C(OC)C(=O)c2ccccc2C1=O [2,3-Dimethoxy-1,4-naphthoquinone]
[1]
  Plate 2 (% conversion): 33.76%
[1]; 20 µM
  Plate 2 (% inhibition): 6.56%

## C=CCN1C[C@H](C)N([C@H](c2ccc(C(=O)N(CC)CC)cc2)c2cccc(OC)c2)C[C@H]1C [SNC80]
[1]
  % conversion: 40.53%
[1]; 20 µM
  % inhibition: -11.89%

## Cc1cccc(C)c1N=C1NCCCS1 [Xylazine hydrochloride]
[1]
  % conversion: 33.11%

## CCN(CC)CCNC(=O)c1ccc(NC(C)=O)cc1.Cl [N-Acetylprocainamide hydrochloride]
[1]; [6]
  Plate 1 (% inhibition): 3.70%
[1]; [7]
  Plate 1 (% conversion): 34.63%

## Cc1[nH]c(=O)c(C#N)cc1-c1ccncc1 [Milrinone]
[1]; [5]
  Plate 3 (% conversion): 40.58%

## N#Cc1cc2nc([O-])c([O-])nc2cc1[N+](=O)[O-].[Na+].[Na+] [CNQX disodium]
[1]; [8]
  Plate 2 (% conversion): 39.74%
[1]; [9]
  Plate 2 (% inhibition): -11.30%

## COC(=O)C1=C(C)NC(C)=C(C(=O)O[C@@H]2CCCN(Cc3ccccc3)C2)[C@@H]1c1cccc([N+](=O)[O-])c1.Cl (racemic) [Benidipine hydrochloride]
[1]; [8]
  Plate 2 (% conversion): 31.43%
[1]; [9]
  Plate 2 (% inhibition): 13.51%

## COc1ccc2c(c[n+](C)c3c4cc5c(cc4ccc23)OCO5)c1OC [Chelerythrine chloride]
[1]
  Plate 1 (% conversion): 32.96%
[1]; [6]
  Plate 1 (% inhibition): 8.68%

## Cc1oncc1C(=O)Nc1ccc(C(F)(F)F)cc1 [Leflunomide]
[1]; [5]
  Plate 3 (% conversion): 37.93%

## C[C@H]1C[C@H]2[C@@H]3CCC4=CC(=O)C=C[C@]4(C)[C@@]3(F)[C@@H](O)C[C@]2(C)[C@@]1(O)C(=O)CO [Betamethasone]
[1]; [6]
  Plate 1 (% inhibition): -5.12%
[1]; [7]
  Plate 1 (% conversion): 37.59%
